Patent US20130197036A1, “TRANSDERMAL ABSORPTION PREPARATION” (priority 2010, published 2013)

What was measured:
[1] = Octanol/water partition coefficient; type: physicochemical; conditions: in the range of pH 3 to 9
Description: However, the octanol/water partition coefficient of compound A in the range of pH 3 to 9 is less than 0.05, which greatly differs from the partition coefficient (100 to 1000) of a compound generally having high membrane permeability. Compound A tends to be difficult to permeate through a membrane. Thus, it is difficult to provide a transdermal preparation comprising compound A or a salt thereof and having transdermal absorbability sufficient to exert a pharmacological effect. A transdermal preparation of compound A or a salt thereof is not known.

[2] = system: fungi, azole antifungal agent-resistant fungi; conditions: Patent Document 1; cited from earlier work

N=C(N)c1ccc(OCCCC2CCN(CCCOc3ccc(C(=N)N)cc3)CC2)cc1 [compound A, 4-{3-[4-(3-{4-[Amino(imino)methyl]phenoxy}propyl)-1-piperidinyl]propoxy}benzamidine]
octanol/water partition coefficient [1]: less than 0.05
antifungal activity (in words) [2]: strong antifungal activity
